Here are results for 18 molecules from US12577234B2, “Antagonists of the muscarinic acetylcholine receptor M4” (Vanderbilt University, priority 2017, dated 2026).

Structures are written as SMILES.

For this assay, the target named is T1, human mAChR M4 (Homo sapiens, UniProt P08173).
T1 construct: expressed in transfected cells; host or cells: CHO-K1 (ATCC), stably co-expressing chimeric G protein Gqi5
T1 sequence (P08173 1-479): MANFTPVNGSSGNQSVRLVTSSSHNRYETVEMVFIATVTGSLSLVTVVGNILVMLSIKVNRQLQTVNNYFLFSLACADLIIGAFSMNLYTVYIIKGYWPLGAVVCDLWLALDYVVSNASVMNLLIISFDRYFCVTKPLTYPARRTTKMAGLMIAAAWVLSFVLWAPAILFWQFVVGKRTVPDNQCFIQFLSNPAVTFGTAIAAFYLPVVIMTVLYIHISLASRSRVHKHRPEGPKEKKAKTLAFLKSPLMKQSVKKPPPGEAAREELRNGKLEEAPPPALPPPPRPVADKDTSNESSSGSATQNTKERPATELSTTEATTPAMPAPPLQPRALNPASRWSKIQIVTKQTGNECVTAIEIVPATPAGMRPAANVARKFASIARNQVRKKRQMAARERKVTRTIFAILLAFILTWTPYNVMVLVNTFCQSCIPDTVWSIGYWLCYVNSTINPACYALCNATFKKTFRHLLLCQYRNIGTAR
Briefly: mAChR M4 cell-based functional assay (calcium mobilization, EC80 acetylcholine), human M4. The following applies: for IC50: M4/Gqi5/CHO-K1 cells, decrease of EC80 acetylcholine response; for Emin: human M4, % ACh maximum at 30 μM. A digest of the protocol: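 CHO-K1 cells stably expressing human M4 with chimeric Gqi5; intracellular calcium rise read on FDSS as fluorescence static ratio at 1 Hz. Compounds in 10-point 1:3 dilution series; IC50 taken as concentration-dependent decrease of the EC80 acetylcholine response, four-parameter logistic fit.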

With `Fc1ccc(-c2ccc(N[C@H]3C[C@@H]4CN(CC5CCOCC5)C[C@@H]4C3)nn2)c(Cl)c1` [Compound 203, (3aR,5s,6aS)-N-[6-(2-chloro-4-fluoro-phenyl)pyridazin-3-yl]-2-(tetrahydropyran-4-ylmethyl)-3,3a,4,5,6,6a-hexahydro-1H-cyclopenta[c]pyrrol-5-amine], for the setting “Table 10”, the “Human M4 Emin” value is 5% and the IC50 worked out at 1.25 nM.
As to `Cc1cnn(C)c1-c1ccc(N[C@H]2C[C@@H]3CN(CC45CC6CC(CC(C6)C4)C5)C[C@@H]3C2)nn1` [compound 16], the IC50 (Table 9) amounted to 26 nM.
Take `Cc1cnn(C)c1-c1ccc(OC[C@H]2C[C@@H]3CN(CCC(C)(C)C)C[C@@H]3C2)nn1` [Compound 146, (3aR,5s,6aS)-2-(3,3-dimethylbutyl)-5-[[6-(2,4-dimethylpyrazol-3-yl)pyridazin-3-yl]oxymethyl]-3,3a,4,5,6,6a-hexahydro-1H-cyclopenta[c]pyrrole]: where the note is “Table 10”, the “Human M4 Emin” value turned out to be 4% and the IC50 was determined as 167 nM.
As to `CC(C)(C)CCN1C[C@H]2C[C@H](Nc3ccc(N4CCOCC4)nn3)C[C@H]2C1` [Compound 143, (3aR,5s,6aS)-2-(3,3-dimethylbutyl)-N-(6-morpholinopyridazin-3-yl)-3,3a,4,5,6,6a-hexahydro-1H-cyclopenta[c]pyrrol-5-amine], under “Table 10”, the “Human M4 Emin” value worked out at 6% and the IC50 stood at 5020 nM.
Regarding `Cn1cc(-c2ccc(N[C@H]3C[C@@H]4CN(CC5CCOCC5)C[C@@H]4C3)nn2)cn1` [Compound 208, (3aR,5s,6aS)-N-[6-(1-methylpyrazol-4-yl)pyridazin-3-yl]-2-(tetrahydropyran-4-ylmethyl)-3,3a,4,5,6,6a-hexahydro-1H-cyclopenta[c]pyrrol-5-amine], for the setting “Table 10”, the “Human M4 Emin” value worked out at 25% and the half-maximal inhibitory concentration (IC50) came to 4.14 nM.
`Cc1cnn(C)c1-c1ccc(OCC2C[C@@H]3CN(Cc4ccccc4)C[C@@H]3C2)nn1` (stereo partly drawn) [Compound 86, (3aR,6aS)-2-benzyl-5-[[6-(2,4-dimethylpyrazol-3-yl)pyridazin-3-yl]oxymethyl]-3,3a,4,5,6,6a-hexahydro-1H-cyclopenta[c]pyrrole]: under “Table 9”, the IC50 amounted to 2860 nM and the Emin amounted to 9.09%.
Regarding `CC(C)CN1C[C@H]2C[C@H](Nc3ccc(-c4cc(F)ccc4Cl)nn3)C[C@H]2C1` [Compound 177, (3aR,5s,6aS)-N-[6-(2-chloro-5-fluoro-phenyl)pyridazin-3-yl]-2-isobutyl-3,3a,4,5,6,6a-hexahydro-1H-cyclopenta[c]pyrrol-5-amine], under “Table 10”, the “Human M4 Emin” value was 3% and the half-maximal inhibitory concentration (IC50) is 5.02 nM.
The corresponding values for `Fc1ccc(Cl)c(-c2ccc(N[C@H]3C[C@@H]4CN(Cc5ccccn5)C[C@@H]4C3)nn2)c1` [Compound 160, (3aR,5s,6aS)-N-[6-(2-chloro-5-fluoro-phenyl)pyridazin-3-yl]-2-(2-pyridylmethyl)-3,3a,4,5,6,6a-hexahydro-1H-cyclopenta[c]pyrrol-5-amine] are 3% and 4.03 nM.
Turning to `Fc1ccc(Cl)c(-c2ccc(NC[C@H]3C[C@@H]4CN(CC5CC6C=CC5C6)C[C@@H]4C3)nn2)c1` (stereo partly drawn) [Compound 69, N-[[(3aR,5s,6aS)-2-(5-bicyclo[2.2.1]hept-2-enylmethyl)-3,3a,4,5,6,6a-hexahydro-1H-cyclopenta[c]pyrrol-5-yl]methyl]-6-(2-chloro-5-fluoro-phenyl)pyridazin-3-amine], under “Table 9”, the IC50 was determined as 35.9 nM and the Emin was determined as 2.74%.
The corresponding values for `Cc1nn(C)cc1-c1ccc(N[C@@H]2C[C@@H]3CN(CCC(C)(C)C)C[C@@H]3C2)c(F)c1F` [Compound 41, (3aR,5r,6aS)-2-(3,3-Dimethylbutyl)-N-[4-(1,3-dimethylpyrazol-4-yl)-2,3-difluoro-phenyl]-3,3a,4,5,6,6a-hexahydro-1H-cyclopenta[c]pyrrol-5-amine] are 433 nM and 4.62%.
With `CC1(C)CC(CN2C[C@H]3C[C@H](Nc4ccc(-c5cc(F)ccc5Cl)nn4)C[C@H]3C2)CCO1` (stereo partly drawn) [Compound 173, (3aR,5s,6aS)-N-[6-(2-chloro-5-fluoro-phenyl)pyridazin-3-yl]-2-[(2,2-dimethyltetrahydropyran-4-yl)methyl]-3,3a,4,5,6,6a-hexahydro-1H-cyclopenta[c]pyrrol-5-amine], under “Table 10”, the “Human M4 Emin” value is given as 3% and the IC50 turned out to be 3.32 nM.
In the case of `Cc1cnn(C)c1-c1ccc(NC[C@H]2C[C@@H]3CN(CC4CCOCC4)C[C@@H]3C2)nn1` [Compound 66, N-[[(3aR,5s,6aS)-2-(tetrahydropyran-4-ylmethyl)-3,3a,4,5,6,6a-hexahydro-1H-cyclopenta[c]pyrrol-5-yl]methyl]-6-(2,4-dimethylpyrazol-3-yl)pyridazin-3-amine], where the note is “Table 9”, the IC50 was 3790 nM and the Emin was determined as 17.2%.
With `Cc1cccnc1CN1C[C@H]2CC(COc3ccc(-c4cn(C)nc4C)nn3)C[C@H]2C1` (stereo partly drawn) [Compound 104, (3aR,6aS)-5-[[6-(1,3-dimethylpyrazol-4-yl)pyridazin-3-yl]oxymethyl]-2-[(3-methyl-2-pyridyl)methyl]-3,3a,4,5,6,6a-hexahydro-1H-cyclopenta[c]pyrrole], where the note is “Table 9”, the 50% inhibitory concentration (IC50) worked out at 1530 nM and the Emin was 6.78%.
For `COc1ccc(CN2C[C@H]3C[C@H](Nc4ccc(-c5cc(F)ccc5Cl)nn4)C[C@H]3C2)cc1` [Compound 168, (3aR,5s,6aS)-N-[6-(2-chloro-5-fluoro-phenyl)pyridazin-3-yl]-2-[(4-methoxyphenyl)methyl]-3,3a,4,5,6,6a-hexahydro-1H-cyclopenta[c]pyrrol-5-amine], under “Table 10”, the “Human M4 Emin” value stood at 2% and the IC50 was 11.5 nM.
The corresponding values for `Fc1ccc(Cl)c(-c2ccc(N[C@H]3C[C@@H]4CN(Cc5ccoc5)C[C@@H]4C3)nn2)c1` [Compound 178, (3aR,5s,6aS)-N-[6-(2-chloro-5-fluoro-phenyl)pyridazin-3-yl]-2-(3-furylmethyl)-3,3a,4,5,6,6a-hexahydro-1H-cyclopenta[c]pyrrol-5-amine] are 3% and 45.1 nM.
For the molecule `Fc1ccc(Cl)c(-c2ccc(OCC3C[C@@H]4CN(CC5CCCOC5)C[C@@H]4C3)nn2)c1` (stereo partly drawn) [Compound 113, (3aR,6aS)-5-[[6-(2-chloro-5-fluoro-phenyl)pyridazin-3-yl]oxymethyl]-2-(tetrahydropyran-3-ylmethyl)-3,3a,4,5,6,6a-hexahydro-1H-cyclopenta[c]pyrrole], where the note is “Table 9”, the IC50 was 860 nM and the Emin was 4.76%.
With `Fc1cccc(-c2ccc(N[C@H]3C[C@@H]4CN(CC5CCOCC5)C[C@@H]4C3)nn2)c1Cl` [Compound 202, (3aR,5s,6aS)-N-[6-(2-chloro-3-fluoro-phenyl)pyridazin-3-yl]-2-(tetrahydropyran-4-ylmethyl)-3,3a,4,5,6,6a-hexahydro-1H-cyclopenta[c]pyrrol-5-amine], under “Table 10”, the “Human M4 Emin” value is listed as 5% and the IC50 came to 0.517 nM.
The corresponding values for `c1cc(-c2ccc(N[C@H]3C[C@@H]4CN(CC5CCOCC5)C[C@@H]4C3)nn2)ccn1` [Compound 219, (3aR,5s,6aS)-N-[6-(4-pyridyl)pyridazin-3-yl]-2-(tetrahydropyran-4-ylmethyl)-3,3a,4,5,6,6a-hexahydro-1H-cyclopenta[c]pyrrol-5-amine] are 9% and 1.83 nM.
